Data set [1] in a line: Selectivity index, ratio of IC50 for African green monkey Vero cells to IC50 for Trypanosoma cruzi IRHOD/CO/2008/SN3 DTU 1 amastigotes infected in African green monkey Vero cells. In kind it is toxicity. Conditions: read-out: Ratio IC50.
The test system of data set [2] is Trypanosoma cruzi. As to the kind of experiment: Trypanocidal activity against Trypanosoma cruzi MHOM/Pe/2011/Arequipa DTU 5 epimastigotes after 72 hrs by resazurin dye based assay. In kind it is functional, organism-based. Conditions: MHOM/Pe/2011/Arequipa DTU 5, 72 h.
Data set [3] relates to Trypanosoma cruzi. The data set is described as follows: Trypanocidal activity against Trypanosoma cruzi TINF/CH/1956/Tulahuen DTU 6 trypomastigotes derived from infected Balb/c mouse after 72 hrs by resazurin dye based assay. Conditions: TINF/CH/1956/Tulahuen DTU 6, 72 h. In kind it is functional, organism-based. A general note: Resazurin is reduced to fluorescent resorufin, in cell work by metabolically active cells.

Data set [4] concerns the target Superoxide dismutase [Cu-Zn] (Homo sapiens, UniProt P00441). As to the kind of experiment: Inhibition of human erythrocyte CuZn-SOD by UV-Visible spectrophotometric method.
Data set [5] can be described thus: Selectivity index, ratio of IC50 for African green monkey Vero cells to IC50 for Trypanosoma cruzi IRHOD/CO/2008/SN3 DTU 1 trypomastigotes derived from infected Balb/c mouse. As to conditions: read-out: Ratio IC50. It counts as toxicity.
A short description of data set [6]: Selectivity index, ratio of IC50 for African green monkey Vero cells to IC50 for Trypanosoma cruzi MHOM/Pe/2011/Arequipa DTU 5 epimastigotes. In kind it is toxicity. As to conditions: read-out: Ratio IC50.
Data set [7] is described as follows: Selectivity index, ratio of IC50 for African green monkey Vero cells to IC50 for Trypanosoma cruzi IRHOD/CO/2008/SN3 DTU 1 epimastigotes. It counts as toxicity. Conditions: read-out: Ratio IC50.
Data set [8] in a line: Selectivity index, ratio of IC50 for African green monkey Vero cells to IC50 for Trypanosoma cruzi TINF/CH/1956/Tulahuen DTU 6 trypomastigotes derived from infected Balb/c mouse. In kind it is toxicity. Conditions: read-out: Ratio IC50.
Data set [9] is described as follows: Hepatotoxicity in Balb/c mouse infected with Trypanosoma cruzi MHOM/Pe/2011/Arequipa DTU 5 trypomastigotes assessed as increase in total bilirubin level at 20 mg/kg, po once daily for 5 consecutive days starting from day 75 post infection measured on day 127 post infection relative to control. In kind it is toxicity, organism-based. Conditions: in vivo.
Data set [10] can be described thus: Hepatotoxicity in Balb/c mouse infected with Trypanosoma cruzi MHOM/Pe/2011/Arequipa DTU 5 trypomastigotes assessed as change in total bilirubin level at 20 mg/kg, po once daily for 5 consecutive days starting from day 10 post infection measured on day 127 post infection by biochemical analysis (reference value: 0.21 mg/dl). It counts as toxicity, organism-based. Conditions: in vivo.

Data set [11] can be described thus: Selectivity index, ratio of IC50 for African green monkey Vero cells to IC50 for Trypanosoma cruzi TINF/CH/1956/Tulahuen DTU 6 amastigotes infected in African green monkey Vero cells. As to conditions: read-out: Ratio IC50. In kind it is toxicity.
Data set [12] in a line: Selectivity index, ratio of IC50 for African green monkey Vero cells to IC50 for Trypanosoma cruzi MHOM/Pe/2011/Arequipa DTU 5 amastigotes infected in African green monkey Vero cells. In kind it is toxicity. Conditions: read-out: Ratio IC50.
In data set [13] the test system is Trypanosoma cruzi. The data set is described as follows: Trypanocidal activity against Trypanosoma cruzi MHOM/Pe/2011/Arequipa DTU 5 amastigotes infected in African green monkey Vero cells after 72 hrs by Giemsa-staining based microscopic assay. In kind it is functional, organism-based. Conditions: MHOM/Pe/2011/Arequipa DTU 5, Vero.
In data set [14] the test system is Trypanosoma cruzi. As to the kind of experiment: Trypanocidal activity against Trypanosoma cruzi TINF/CH/1956/Tulahuen DTU 6 epimastigotes after 72 hrs by resazurin dye based assay. In kind it is functional, organism-based. As to conditions: TINF/CH/1956/Tulahuen DTU 6, 72 h.
The subject of data set [15] is Trypanosoma cruzi. The data set is described as follows: Trypanocidal activity against Trypanosoma cruzi TINF/CH/1956/Tulahuen DTU 6 amastigotes infected in African green monkey Vero cells after 72 hrs by Giemsa-staining based microscopic assay. Conditions: TINF/CH/1956/Tulahuen DTU 6, Vero. In kind it is functional, organism-based.
The test system of data set [16] is Trypanosoma cruzi. As to the kind of experiment: Antitrypanosomal activity against Trypanosoma cruzi MHOM/Pe/2011/Arequipa DTU 5 trypomastigotes infected in Balb/c mouse assessed as reduction in parasitaemia level at 20 mg/kg, po once daily for 5 consecutive days starting from day 10 post infection measured on day 23 post infection by Neubauer chamber method relative to control. In kind it is functional. Further details: scale not given: the % may be the effect or the level left.

A short description of data set [17]: Nephrotoxicity in Balb/c mouse infected with Trypanosoma cruzi MHOM/Pe/2011/Arequipa DTU 5 trypomastigotes assessed as decrease in serum uric acid level at 20 mg/kg, po once daily for 5 consecutive days starting from day 75 post infection measured on day 81 post infection relative to control. As to conditions: in vivo. It counts as toxicity, organism-based.

For data set [18], the system named is Trypanosoma cruzi. The data set is described as follows: Trypanocidal activity against Trypanosoma cruzi MHOM/Pe/2011/Arequipa DTU 5 trypomastigotes derived from infected Balb/c mouse after 72 hrs by resazurin dye based assay. It counts as functional, organism-based. As to conditions: MHOM/Pe/2011/Arequipa DTU 5, 72 h.
The nature of data set [19]: Hepatotoxicity in Balb/c mouse infected with Trypanosoma cruzi MHOM/Pe/2011/Arequipa DTU 5 trypomastigotes assessed as increase in alkaline phosphatase level at 20 mg/kg, po once daily for 5 consecutive days starting from day 75 post infection measured on day 81 post infection relative to control. In kind it is toxicity, organism-based. Conditions: in vivo.
Data set [20] has as its system Trypanosoma cruzi. The data set is described as follows: Antitrypanosomal activity against Trypanosoma cruzi MHOM/Pe/2011/Arequipa DTU 5 trypomastigotes infected in Balb/c mouse assessed as reduction in parasitaemia level at 20 mg/kg, po once daily for 5 consecutive days starting from day 10 post infection measured on day 40 post infection by Neubauer chamber method. It counts as functional, organism-based.

Data set [21] deals with Trypanosoma cruzi. The data set is described as follows: Antitrypanosomal activity against Trypanosoma cruzi MHOM/Pe/2011/Arequipa DTU 5 epimastigotes assessed as effect on parasite glycolytic pathway by measuring increase in glycerol excretion at IC25 after 72 hrs by 1H NMR method. In kind it is functional.
In data set [22] the test system is Trypanosoma cruzi. The data set is described as follows: Trypanocidal activity against Trypanosoma cruzi IRHOD/CO/2008/SN3 DTU 1 trypomastigotes derived from infected Balb/c mouse after 72 hrs by resazurin dye based assay. It counts as functional, organism-based. Conditions: IRHOD/CO/2008/SN3 DTU 1, 72 h.
The next data set concerns Vero. The data set is described as follows: Cytotoxicity against African green monkey Vero cells assessed as reduction in cell viability after 72 hrs by resazurin dye based assay. As to conditions: Chlorocebus sabaeus.
Data set [23] relates to Trypanosoma cruzi. The data set is described as follows: Trypanocidal activity against Trypanosoma cruzi MHOM/Pe/2011/Arequipa DTU 5 amastigotes infected in African green monkey Vero cells assessed as reduction in infected cells after 72 hrs by Giemsa-staining based assay. As to conditions: MHOM/Pe/2011/Arequipa DTU 5, Vero. In kind it is functional, organism-based.
The nature of data set [24]: Inhibition of Trypanosoma cruzi MHOM/Pe/2011/Arequipa DTU 5 epimastigotes Fe-SOD by UV-Visible spectrophotometric method.
In data set [25] the test system is Trypanosoma cruzi. As to the kind of experiment: Antitrypanosomal activity against Trypanosoma cruzi MHOM/Pe/2011/Arequipa DTU 5 epimastigotes assessed as effect on parasite glycolytic pathway by measuring increase in succinate excretion at IC25 after 72 hrs by 1H NMR method. In kind it is functional, organism-based.
Data set [26] deals with Trypanosoma cruzi. As to the kind of experiment: Antitrypanosomal activity against Trypanosoma cruzi MHOM/Pe/2011/Arequipa DTU 5 trypomastigotes infected in Balb/c mouse assessed as reduction in parasitaemia level at 20 mg/kg, po once daily for 5 consecutive days starting from day 10 post infection measured every 2 to 3 days up to day 50 post infection starting from day 7 post infection by Neubauer chamber method. It counts as functional, organism-based.

A short description of data set [27]: Selectivity index, ratio of IC50 for African green monkey Vero cells to IC50 for Trypanosoma cruzi TINF/CH/1956/Tulahuen DTU 6 epimastigotes. As to conditions: read-out: Ratio IC50. It counts as toxicity.
A short description of data set [28]: Nephrotoxicity in Balb/c mouse infected with Trypanosoma cruzi MHOM/Pe/2011/Arequipa DTU 5 trypomastigotes assessed as decrease in serum uric acid level at 20 mg/kg, po once daily for 5 consecutive days starting from day 75 post infection measured on day 127 post infection relative to control. It counts as toxicity, organism-based. As to conditions: in vivo.

Data set [29] in a line: Hepatotoxicity in Balb/c mouse infected with Trypanosoma cruzi MHOM/Pe/2011/Arequipa DTU 5 trypomastigotes assessed as increase in alkaline phosphatase level at 20 mg/kg, po once daily for 5 consecutive days starting from day 10 post infection measured on day 16 post infection relative to control. In kind it is toxicity, organism-based. Conditions: in vivo.

Active and inactive are the calls of the source. The rule behind the calls is not given here.

As a reminder, the IC50 is the concentration needed to halve the response being measured.

Superoxide dismutase [Cu-Zn], sequence (P00441 whole entry): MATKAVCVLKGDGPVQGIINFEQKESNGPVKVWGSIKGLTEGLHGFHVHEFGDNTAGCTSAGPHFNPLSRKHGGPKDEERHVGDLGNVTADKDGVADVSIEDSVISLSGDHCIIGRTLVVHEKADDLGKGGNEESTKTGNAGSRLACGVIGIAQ

As for `CCCCCCCCCCCCCCCCNc1c(N(C)CCCN(C)C)c(=O)c1=O`, the selectivity ratio in data set [1] amounted to 35.9; in data set [5], 126; in data set [6], 93.1; in data set [7] it was 42.5; in data set [8] it was 144; in data set [11] it was 106. Besides, the selectivity ratio was determined as 3090 in data set [12] and 71.1 in data set [27]. Also, the IC50 is 7.3 µM in the data set on Trypanosoma cruzi [2]; 4.7 µM in the data set on Trypanosoma cruzi [3]; greater than 100 µM in data set [4]; 0.2 µM with Trypanosoma cruzi [13]; 9.5 µM in the data set with Trypanosoma cruzi [14]; 6.4 µM in the data set with Trypanosoma cruzi [15]. The IC50 with Trypanosoma cruzi [18] was found to be 4.4 µM; in the data set on Trypanosoma cruzi [22], 5.4 µM; with Vero it was 679 µM; with Trypanosoma cruzi [23], 5.6 µM; in data set [24], 69.8 µM. The Activity was 10% in [9]; 0.21 mg/dL in data set [10]; 80% in the data set on Trypanosoma cruzi [16]; 20 to 30 mg/dL in [17]; 10 to 20 U/L in [19]; 43% with Trypanosoma cruzi [21]. Also, the outcome in the data set on Trypanosoma cruzi [20], in the data set with Trypanosoma cruzi [25] and in the data set on Trypanosoma cruzi [26] was Active.

For the molecule `O=C(Cn1ccnc1[N+](=O)[O-])NCc1ccccc1` [BENZNIDAZOLE], the Activity is 10 to 20 mg/dL in data set [28]; 20% in [9]; 70% in the data set on Trypanosoma cruzi [16]; greater than 40 U/L in data set [19]; 20 to 30 U/L in data set [29]. Further, the outcome with Trypanosoma cruzi [20] was Active.

`CCCCCCNc1c(N(C)CCCN(C)C)c(=O)c1=O`: the selectivity ratio was 18 in data set [1]; 57 in [5]; 44.3 in data set [6]; 63 in data set [7]; 52.2 in data set [8]; 23.5 in data set [11]. Besides, the selectivity ratio in data set [12] amounted to 52.1; in [27] it was 61.3. Moreover, the half-inhibitory concentration (IC50) in the data set on Trypanosoma cruzi [2] was 20.3 µM; in the data set on Trypanosoma cruzi [3], 17.2 µM; in data set [4], greater than 100 µM; in the data set with Trypanosoma cruzi [13] it was 17.3 µM; with Trypanosoma cruzi [14] it was 14.7 µM; in the data set on Trypanosoma cruzi [15], 38.3 µM. Moreover, the half-inhibitory concentration (IC50) in the data set on Trypanosoma cruzi [18] stood at 6.5 µM; in the data set with Trypanosoma cruzi [22], 15.8 µM; with Vero, 900 µM; with Trypanosoma cruzi [23], 60.5 µM; in data set [24] it was 25.3 µM. Further, the Activity in data set [28] was 10 to 20 mg/dL; in data set [10], 0.21 mg/dL; in data set [17] it was 10 to 20 mg/dL; in data set [29], 10 to 20 U/L. Besides, the outcome with Trypanosoma cruzi [21] and with Trypanosoma cruzi [25] was Active. Also, the outcome with Trypanosoma cruzi [26] was inactive.
